According to patent publication US20240327434A1, “FUSED TETRACYCLIC COMPOUND, PREPARATION METHOD THEREFOR AND APPLICATION THEREOF IN MEDICINE” (Jiangsu Hengrui Pharmaceuticals Co., Ltd., priority 2021, published 2024):

How the values were obtained:
[1] = system: ERK phosphorylation of AGS cells; test: Inhibition of ERK phosphorylation of AGS cells (HTRF method); format: cell-based; conditions: Homo sapiens, 1 h compound incubation, phosphorylated ERK/total ERK ratio, read-out: AGS/ IC50 (nM), inhibitory activity for ERK phosphorylation
Procedure: In the experiment, the inhibition effect of the compounds on ERK phosphorylation of the cells was detected, and the inhibition effect of the compounds disclosed herein on the KRAS target was evaluated according to the IC50.
AGS cells (Nanjing Cobioer, CBP60476) were cultured in RPMI1640 (Hyclone, SH30809.01) complete medium containing 10% fetal bovine serum. On the first day of the experiment, the AGS cells were seeded into a 96-well plate with complete medium at a density of 40,000 cells/well to form 190 μL of cell suspension per well. The plate was incubated overnight in a cell incubator at 37° C. with 5% CO2.
The next day, 10 μL of serially-diluted test compound prepared from the complete medium was added to each well. The final concentrations of the compound were 9 concentration points obtained by 5-fold serial dilution from 10 μM. A blank control containing 0.5% DMSO was set. The well plate was incubated in a cell incubator at 37° C. with 5% CO2 for 1 h. After completion of incubation, the 96-well cell culture plate was taken out, the medium was removed by pipetting, 200 μL PBS (Shanghai BasalMedia Technologies Co., Ltd., B320) was added to each well, and the cells were washed once. PBS was removed by pipetting, 50 μL of lysis buffer (Cisbio, 64KL1FDF) containing a blocking solution (blocking reagent, Cisbio, 64KB1AAC) was added to each well, and the well plate was lysed on a shaker for 40 min at room temperature with shaking. After lysis, the lysate was pipetted and mixed well, 16 μL of lysate was transferred to two HTRF 96-well assay plates (Cisbio, 66PL96100) per well, and then 4 μL of premixed phosphorylated ERK1/2 antibody solution (Cisbio, 64AERPEG) or 4 μL of premixed total ERK1/2 antibody solution (Cisbio, 64NRKPEG) was added to these two plates. The microplate was sealed with a sealing membrane, centrifuged for 1 min in a microplate centrifuge, and incubated overnight at room temperature in the dark. On the third day, the fluorescence values at an excitation wavelength of 337 nm and at emission wavelengths of 665 nm and 620 nm were read using an ENVISION multifunctional microplate reader (PerkinElmer, ENVISION).

[2] = biological target: KRAS protein subtype G12D (Avi-KRAS-G12D) (Homo sapiens (Human), UniProt P01116, G12D); test: SPR affinity for KRAS protein subtype G12D (Biacore 8K); format: binding; conditions: single-cycle kinetic mode, 1:1 model, read-out: G12D KD (unit mol/L)
Sequence of KRAS protein subtype G12D (Avi-KRAS-G12D) (P01116 whole entry G12D): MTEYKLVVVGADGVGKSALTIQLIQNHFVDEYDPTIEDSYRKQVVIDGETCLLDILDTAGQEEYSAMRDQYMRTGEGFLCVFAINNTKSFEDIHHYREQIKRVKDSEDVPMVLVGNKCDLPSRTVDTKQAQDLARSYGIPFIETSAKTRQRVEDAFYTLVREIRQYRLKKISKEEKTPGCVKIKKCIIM
Procedure: (§1) Biotinylated Avi-KRAS-WT or Avi-KRAS-G12D was diluted to 20 μg/mL with 1x HBS-P+(Cat. #BR1006-71) buffer containing 100 mM MgCl2, and then flowed through SA (Cat. #BR1005-31) biosensing chip channel 2 for 420 s to obtain a coupling level of approximately 5000-7000 RU. Then samples of small molecular compounds were injected for 120 s in an ascending order, and then were dissociated for 720 s. The experiment employed a single-cycle kinetic mode. Reaction signals were detected in real time using a Biacore 8K instrument to obtain association and dissociation curves. After the experiment ended, data analysis was performed using Biacore 8K evaluation software, and affinity data were obtained by performing data fitting using a 1:1 model.

[3] = biological target: KRAS protein subtype WT (Avi-KRAS-WT) (Homo sapiens (Human), UniProt P01116); test: SPR affinity for KRAS protein subtype WT (Biacore 8K); format: binding; conditions: single-cycle kinetic mode, 1:1 model, read-out: WT KD (unit mol/L)
Sequence of KRAS protein subtype WT (Avi-KRAS-WT) (P01116 whole entry): as the sequence (P01116 whole entry G12D) above, with D12G counted along it
Procedure: as §1

GP2d cells = test: Inhibition of 3D proliferation of GP2d cells (CellTiter-Glo 3D); format: cell-based; conditions: 120 h incubation, read-out: GP2d/ IC50 (nM), inhibitory activity for 3D proliferation
Procedure: (§2) The inhibition effect of the compounds disclosed herein on the KRAS target was evaluated by testing the 3D proliferation inhibition effect of the compounds disclosed herein on GP2d and AGS cells.
GP2d cells (Nanjing Cobioer, CBP60010) were cultured in a complete medium, namely DMEM/high glucose medium (Hyclone, SH30243.01) containing 10% fetal bovine serum (Corning, 35-076-CV). On the first day of the experiment, GP2d cells were seeded into a 96-well low adsorption plate (Corning, CLS7007-24EA) with complete medium at a density of 1,000 cells/well to form 90 μL of cell suspension per well. The plate was centrifuged at 2,000 rpm for 5 min at room temperature and then incubated overnight in a cell incubator at 37° C. with 5% CO2.
The next day, 10 μL of serially-diluted test compound prepared from the complete medium was added to each well. […] A blank control containing 0.5% DMSO was set. The well plate was incubated in a cell incubator at 37° C. with 5% CO2 for 120 h.

AGS cells = test: Inhibition of 3D proliferation of AGS cells (CellTiter-Glo 3D); format: cell-based; conditions: Homo sapiens, 120 h incubation, read-out: AGS/ IC50 (nM), inhibitory activity for 3D proliferation
Procedure: as §2
AGS cells (Nanjing Cobioer, CBP60476) were cultured in a complete medium, namely RPMI1640 medium (Hyclone, SH30809.01) containing 10% fetal bovine serum (Corning, 35-076-CV). On the first day of the experiment, the AGS cells were seeded into a 96-well low adsorption plate (Corning, CLS7007-24EA) at a density of 1,000 cells/well using complete medium to form 90 μL of cell suspension per well. The plate was centrifuged at 2,000 rpm for 5 min at room temperature and then incubated overnight in a cell incubator at 37° C. with 5% CO2.
The next day, 10 μL of serially-diluted test compound prepared from the complete medium was added to each well. […] On the seventh day, the 96-well cell culture plate was taken out, 50 μL CellTiter-Glo® 3D reagent (Promega, G9682) was added into each well, the plate was shaken at room temperature for 25 min, pipetted and mixed well, 50 μL of the solution was transferred into a white impermeable 96-well plate (PE, 6005290), and the luminescence signal values were read using a multifunctional microplate reader (PerkinElmer, ENVISION).

With `CCc1cccc2cc(O)cc(-c3nc4c5c(nc(OC[C@@]67CCCN6C[C@H](F)C7)nc5c3F)N3CC5CCC(N5)C3CO4)c12` (mixture of isomers) [Diastereomeric (1:1) mixture of 4-p1 and 4-p2, 5-Ethyl-4-(1-fluoro-12-(((2R,7aS)-2-fluorotetrahydro-1H-pyrrolizin-7a(5H)-yl)methoxy)-5a,6,7,8,9,10-hexahydro-5H-4-oxa-3,10a,11,13,14-pentaaza-6,9-methanonaphtho[1,8-ab]heptalen-2-yl)naphthalen-2-ol] as the molecule, how does the IC50 [1] read?
Its IC50 is 1.35 nM.

For `Oc1cc(Cl)c(C2CC2)c(-c2nc3c4c(nc(OC[C@@]56CCCN5C[C@H](F)C6)nc4c2F)N2C[C@H]4CC[C@H](N4)[C@H]2CO3)c1` [Example 6-p1, 3-Chloro-4-cyclopropyl-5-((5aS,6S,9R)-1-fluoro-12-(((2R,7aS)-2-fluorotetrahydro-1H-pyrrolizin-7a(5H)-yl)methoxy)-5a,6,7,8,9,10-hexahydro-5H-4-oxa-3,10a,11,13,14-pentaaza-6,9-methanonaphtho[1,8-ab]heptalen-2-yl)phenol], which Kd [2] is on record?
Its Kd is 0.1 nM.

What about the Kd [3] of the same molecule?
Its Kd is 7 nM.

Which results are given for `Oc1cc(-c2nc3c4c(nc(OC[C@@]56CCCN5C[C@H](F)C6)nc4c2F)N2C[C@H]4CC[C@H](N4)[C@H]2CO3)c2c(F)c(F)ccc2c1` [Example 8-p1, 5,6-Difluoro-4-((5aS,6S,9R)-1-fluoro-12-(((2R,7aS)-2-fluorotetrahydro-1H-pyrrolizin-7 a(5H)-yl)methoxy)-5a,6,7,8,9,10-hexahydro-5H-4-oxa-3,10a,11,13,14-pentaaza-6,9-methanonaphtho[1,8-ab]heptalen-2-yl)naphthalen-2-ol]?
Kd [2]: 0.1 nM; Kd [3]: 3.8 nM

Which Kd [2] does the source give for `CCc1cccc2cc(O)cc(-c3nc4c5c(nc(OC[C@@]67CCCN6C[C@H](F)C7)nc5c3F)N3C[C@H]5CC[C@H](N5)[C@H]3CO4)c12` [Example 4-p1, 5-Ethyl-4-((5aS,6S,9R)-1-fluoro-12-(((2R,7aS)-2-fluorotetrahydro-1H-pyrrolizin-7a(5H)-yl)methoxy)-5a,6,7,8,9,10-hexahydro-5H-4-oxa-3,10a, 11,13,14-pentaaza-6,9-methanonaphtho[1,8-ab]heptalen-2-yl)naphthalen-2-ol] here?
Its Kd is 0.14 nM.

And the Kd [3]?
The Kd was 3.4 nM.

What does the source list for `CCc1c(F)ccc2cc(O)cc(-c3nc4c5c(nc(OCC6(CN7C[C@H]8C[C@H]8[C@H]7CO)CC6)nc5c3F)N3C[C@H]5CC[C@H](N5)[C@H]3CO4)c12` [Example 22, 5-Ethyl-6-fluoro-4-((5aS,6S,9R)-1-fluoro-12-((1-(((1R,2S,5S)-2-(hydroxymethyl)-3-azabicyclo[3.1.0]hex-3-yl)methyl)cyclopropyl)methoxy)-5a,6,7,8,9,10-hexahydro-5H-4-oxa-3,10a, 11,13,14-pentaaza-6,9-methanonaphtho[1,8-ab]heptalen-2-yl)naphthalen-2-ol]?
IC50 [1]: 10.2 nM; IC50 (GP2d cells): 9.6 nM

What does the source list for `CCc1cccc2cc(O)cc(-c3cc4nc(OC[C@@]56CCCN5C[C@H](F)C6)nc5c4c(n3)OCC3C4CCC(CN53)N4)c12` (mixture of isomers) [Diastereomeric (1:1) mixture of 2-p1 and 2-p2, 5-Ethyl-4-(12-(((2R,7aS)-2-fluorotetrahydro-1H-pyrrolizin-7a(5H)-yl)methoxy)-5a,6,7,8,9,10-hexahydro-5H-4-oxa-3,10a,11,13,14-pentaaza-6,9-methanonaphtho[1,8-ab]heptalen-2-yl) naphthalen-2-ol]?
Kd [2]: 0.4 nM; Kd [3]: 32.4 nM

`CCc1cccc2cc(O)cc(-c3cc4c5c(nc(OC[C@@]67CCCN6C[C@H](F)C7)nc5c3F)N3CC5CCC(N5)C3CO4)c12` (mixture of isomers) [Diastereomeric (1:1) mixture of 11-p1 and 11-p2, 5-Ethyl-4-(1-fluoro-13-(((2R,7aS)-2-fluorotetrahydro-1H-pyrrolizin-7a(5H)-yl)methoxy)-5a,6,7,8,9,10-hexahydro-5H-6,9-epiminoazepino[2′,1′: 3,4][1,4]oxazepino[5,6,7-de]quinazolin-2-yl) naphthalen-2-ol] was tested. Which IC50 [1] did it give?
Its IC50 is 15.6 nM.

What about the IC50 (GP2d cells) of the same molecule?
Its IC50 is 62.5 nM.

Which Kd [2] does the source give for `CCc1c(F)ccc2cc(O)cc(-c3nc4c5c(nc(OC[C@@]67CCCN6C[C@H](F)C7)nc5c3F)N3C[C@H]5CC[C@H](N5)[C@H]3CO4)c12` [Example 9-p1, 5-Ethyl-6-fluoro-4-((5aS,6S,9R)-1-fluoro-12-(((2R,7aS)-2-fluorotetrahydro-1H-pyrrolizin-7a(5H)-yl)methoxy)-5a,6,7,8,9,10-hexahydro-5H-4-oxa-3,10a, 11,13,14-pentaaza-6,9-methanonaphtho[1,8-ab]heptalen-2-yl)naphthalen-2-ol] here?
The Kd was 0.03 nM.

What about the Kd [3] of the same molecule?
Its Kd is 1.54 nM.

With `Oc1cc(-c2cc3nc(OC[C@@]45CCCN4C[C@H](F)C5)nc4c3c(n2)OCC2C3CCC(CN42)N3)c2c(F)cccc2c1` (mixture of isomers) [Diastereomeric (1:1) mixture of 1-p1 and 1-p2, 5-Fluoro-4-(12-(((2R,7aS)-2-fluorotetrahydro-1 H-pyrrolizin-7a(5H)-yl)methoxy)-5a,6,7,8,9,10-hexahydro-5H-4-oxa-3,10a,11,13,14-pentaaza-6,9-methanonaphtho[1,8-ab]heptalen-2-yl) naphthalen-2-ol] as the molecule, how does the IC50 [1] read?
The IC50 was 94.1 nM.

What does the source list for `CCc1c(F)ccc2cc(O)cc(-c3nc4c5c(nc(OCC6(CN7CC8CC8(CO)C7)CC6)nc5c3F)N3C[C@H]5CC[C@H](N5)[C@H]3CO4)c12` (stereo partly drawn) [Example 23, 5-Ethyl-6-fluoro-4-((5aS,6S,9R)-1-fluoro-12-((1-((1-(hydroxymethyl)-3-azabicyclo[3.1.0]hex-3-yl)methyl)cyclopropyl)methoxy)-5a,6,7,8,9,10-hexahydro-5H-4-oxa-3,10a, 11,13,14-pentaaza-6,9-methanonaphtho[1,8-ab]heptalen-2-yl)naphthalen-2-ol]?
IC50 [1]: 4 nM; IC50 (AGS cells): 108 nM; IC50 (GP2d cells): 8.8 nM
